# Results as given in ChEMBL document CHEMBL3758102, “Serrulatane Diterpenoid from Eremophila neglecta Exhibits Bacterial Biofilm Dispersion and Inhibits Release of Pro-inflammatory Cytokines from Activated Macrophages” (J Nat Prod, 2015).
# The source made the active and inactive calls. The calls are words filed in the database; no cut-off is given here.
# Tests used:
# [1] = test system: BMDM; experiment: Inhibition of TNFalpha production in C57Bl/6 mouse BMDM cells at 40 to 80 uM pretreated prior to LPS-stimulation measured on day 7 by ELISA; assay type: functional, cell-based; details: C57BI/6
# [2] = test system: BMDM; experiment: Inhibition of IL-6 production in C57Bl/6 mouse BMDM cells at 2.5 to 80 uM pretreated prior to LPS-stimulation measured on day 7 by ELISA; assay type: functional, cell-based; details: C57BI/6
# [3] = test system: BMDM; experiment: Decrease in IL-1beta production in C57Bl/6 mouse BMDM cells at 2.5 to 80 uM pretreated for 1 hr prior to ATP-stimulation by ELISA; assay type: functional, cell-based; details: C57BI/6
# [4] = test system: BMDM; experiment: Increase in IL-1beta production in C57Bl/6 mouse BMDM cells at 20 uM pretreated for 1 hr prior to ATP-stimulation by ELISA; assay type: functional, cell-based; details: C57BI/6
# [5] = test system: Staphylococcus aureus; experiment: Antibacterial activity against Staphylococcus aureus ATCC 35556 incubated overnight by broth microdilution method; assay type: functional
# [6] = test system: Escherichia coli; experiment: Antibacterial activity against Escherichia coli ATCC 25922 at 658 uM incubated overnight by broth microdilution method; assay type: functional, organism-based
# [7] = test system: Staphylococcus epidermidis; experiment: Antibiofilm activity against Staphylococcus epidermidis ATCC 35984 assessed as inhibition of 3 to 6 hrs pre-established biofilm formation at 0.064 umol/well after 20 hrs by safranin staining-based method; assay type: functional, organism-based
# [8] = test system: Staphylococcus epidermidis; experiment: Antibiofilm activity against Staphylococcus epidermidis ATCC 35984 assessed as 6 hrs pre-established biofilm viable cell count after 20 hrs (reference value: 8.3 x 10^9 CFU/ml); assay type: functional
# [9] = test system: Staphylococcus epidermidis; experiment: Antibiofilm activity against Staphylococcus epidermidis ATCC 35984 assessed as 12 hrs pre-established biofilm viable cell count after 20 hrs (reference value: 1.2 x 10^10 CFU/ml); assay type: functional
# [10] = test system: Staphylococcus epidermidis; experiment: Antibiofilm activity against Staphylococcus epidermidis ATCC 35984 assessed as 24 hrs pre-established biofilm viable cell count after 20 hrs (reference value: 1.4 x 10^10 +/- 2.6 x 10^9 CFU/ml); assay type: functional
# [11] = test system: Staphylococcus epidermidis; experiment: Antibiofilm activity against Staphylococcus epidermidis ATCC 35984 assessed as reduction in 12 hrs pre-established biofilm viable cell count after 20 hrs (reference value: 1.2 x 10^10 CFU/ml); assay type: functional
# [12] = test system: Staphylococcus epidermidis; experiment: Antibiofilm activity against Staphylococcus epidermidis ATCC 35984 assessed as reduction in 24 hrs pre-established biofilm viable cell count after 20 hrs (reference value: 1.4 x 10^10 +/- 2.6 x 10^9 CFU/ml); assay type: functional
# [13] = test system: Staphylococcus epidermidis; experiment: Antibiofilm activity against Staphylococcus epidermidis ATCC 35984 assessed as inhibition of 12 hrs pre-established biofilm formation at 0.064 umol/well after 20 hrs by visible spectrometric analysis; assay type: functional, organism-based
# [14] = test system: Staphylococcus epidermidis; experiment: Antibiofilm activity against Staphylococcus epidermidis ATCC 35984 assessed as inhibition of 24 hrs pre-established biofilm formation at 0.064 umol/well after 20 hrs by visible spectrometric analysis; assay type: functional, organism-based
# [15] = test system: Staphylococcus epidermidis; experiment: Antibiofilm activity against Staphylococcus epidermidis ATCC 35984 assessed as induction of loosely attached live and dead bacteria in 12 hrs pre-established biofilm at 0.064 umol/well after 20 hrs by fluorescence staining-based confocal microscopic analysis; assay type: functional, organism-based
# [16] = test system: Staphylococcus aureus; experiment: Antibiofilm activity against Staphylococcus aureus ATCC 35556 assessed as inhibition of 24 hrs pre-established biofilm formation at 0.064 umol/well after 20 hrs by safranin staining-based method; assay type: functional, organism-based
# [17] = test system: Staphylococcus epidermidis; experiment: Antibiofilm activity against Staphylococcus epidermidis ATCC 35984 assessed as inhibition of 12 hrs pre-established biofilm formation after 20 hrs by safranin staining-based UV-visible spectroscopic analysis using compound impregnated in polypropylene mesh; assay type: functional, organism-based
# [18] = test system: Staphylococcus epidermidis; experiment: Antibiofilm activity against Staphylococcus epidermidis ATCC 35984 assessed as inhibition of 12 hrs pre-established biofilm formation at 0.16 umol after 20 hrs by safranin staining-based UV-visible spectroscopic analysis using compound impregnated in polypropylene mesh; assay type: functional, organism-based
# [19] = test system: Staphylococcus epidermidis; experiment: Antibiofilm activity against Staphylococcus epidermidis ATCC 35984 assessed as 12 hrs pre-established biofilm viable cell count at 0.02 umol/mesh after 20 hrs by […] using compound impregnated in polypropylene mesh (reference value: 8.6 x 10^9 CFU/ml); assay type: functional
# [20] = test system: Staphylococcus epidermidis; experiment: Antibiofilm activity against Staphylococcus epidermidis ATCC 35984 assessed as 12 hrs pre-established supernatant viable cell count at 0.02 umol/mesh after 20 hrs by […] using compound impregnated in polypropylene mesh (Rvb =7.7 x 10^8 CFU/ml); assay type: functional
# [21] = test system: Staphylococcus epidermidis; experiment: Antibiofilm activity against Staphylococcus epidermidis ATCC 35984 assessed as 12 hrs pre-established supernatant viable cell count at 0.04 umol/mesh after 20 hrs by […] using compound impregnated in polypropylene mesh (Rvb =7.7 x 10^8 CFU/ml); assay type: functional
# [22] = Induction of apoptosis in C57Bl/6 mouse BMDM cells assessed as dead cells at 2.5 uM by annexin V-FITC/DAPI staining-based flow cytometric analysis (reference value: 24.4%); assay type: functional, C57BI/6
# [23] = Induction of apoptosis in C57Bl/6 mouse BMDM cells assessed as early apoptotic cells at 2.5 uM by annexin V-FITC/DAPI staining-based flow cytometric analysis (reference value: 0.49%); assay type: functional, C57BI/6
# [24] = Induction of apoptosis in C57Bl/6 mouse BMDM cells assessed as late apoptotic cells at 20 uM by annexin V-FITC/DAPI staining-based flow cytometric analysis (reference value: 28.4%); assay type: functional, C57BI/6
# [25] = Induction of apoptosis in C57Bl/6 mouse BMDM cells assessed as early apoptotic cells at 20 uM by annexin V-FITC/DAPI staining-based flow cytometric analysis (reference value: 0.49%); assay type: functional, C57BI/6
# [26] = Induction of apoptosis in C57Bl/6 mouse BMDM cells assessed as viable cells at 40 uM by annexin V-FITC/DAPI staining-based flow cytometric analysis (reference value: 46.7%); assay type: functional; details: C57BI/6, BMDM, read-out: Activity
# [27] = Induction of apoptosis in C57Bl/6 mouse BMDM cells assessed as early apoptotic cells at 40 uM by annexin V-FITC/DAPI staining-based flow cytometric analysis (reference value: 0.49%); assay type: functional, C57BI/6
# [28] = Induction of apoptosis in C57Bl/6 mouse BMDM cells assessed as dead cells at 80 uM by annexin V-FITC/DAPI staining-based flow cytometric analysis (reference value: 24.4%); assay type: functional, C57BI/6
# [29] = Induction of apoptosis in C57Bl/6 mouse BMDM cells assessed as viable cells at 80 uM by annexin V-FITC/DAPI staining-based flow cytometric analysis (reference value: 46.7%); assay type: functional; details: C57BI/6, BMDM, read-out: Activity
# [30] = Induction of apoptosis in C57Bl/6 mouse BMDM cells assessed as early apoptotic cells at 80 uM by annexin V-FITC/DAPI staining-based flow cytometric analysis (reference value: 0.49%); assay type: functional, C57BI/6
# [31] = Induction of apoptosis in C57Bl/6 mouse BMDM cells assessed as late apoptotic cells at 160 uM by annexin V-FITC/DAPI staining-based flow cytometric analysis (reference value: 28.4%); assay type: functional, C57BI/6
# [32] = Induction of apoptosis in C57Bl/6 mouse BMDM cells assessed as early apoptotic cells at 160 uM by annexin V-FITC/DAPI staining-based flow cytometric analysis (reference value: 0.49%); assay type: functional, C57BI/6
smiles,measurement,setting,value
CC(C)=CCC[C@H](C)[C@@H]1CC[C@@H](C)c2c(O)cc(C(=O)O)cc21,inhibition,[1],Active
same,inhibition,[2],Active
same,Activity,[3],inactive
same,Activity,[4],inactive
same,MBC,[5],41 µM
same,MIC,[5],41 µM
same,Activity,[6],inactive
same,inhibition,[7],Active
same,Activity,[8],0 CFU/ml
same,Activity,[9],6 ×10³ CFU/ml
same,Activity,[10],4.2 ×10⁸ CFU/ml
same,Activity,[11],7 log10CFU/ml
same,Activity,[12],2 log10CFU/ml
same,inhibition,[13],Active
same,inhibition,[14],Active
same,Activity,[15],Active
same,inhibition,[16],Active
same,inhibition,[17],Dose-dependent effect
same,inhibition,[18],Active
same,Activity,[19],9.1 ×10⁸ CFU/ml
same,Activity,[20],5 ×10⁷ CFU/ml
same,Activity,[21],1.5 ×10⁷ CFU/ml
same,Activity,[22],13.3%
same,Activity,[23],2.54%
same,Activity,[24],27%
same,Activity,[25],4.05%
same,viability at 40 µM,[26],49.5%
same,Activity,[27],0.99%
same,Activity,[28],23.9%
same,viability at 80 µM,[29],31%
same,Activity,[30],0.81%
same,Activity,[31],3.88%
same,Activity,[32],42.5%
